The values below come from PMC3144881, “Computational Reverse-Engineering of a Spider-Venom Derived Peptide Active Against Plasmodium falciparum SUB1” (PLoS ONE, 2011).

Data set [1] addresses recombinant Plasmodium falciparum subtilisin-like serine protease SUB1 (PfSUB1), purified and active (Plasmodium falciparum) (UniProt Q8I0V0).
Data set [2] shares this target. This is another data set of the same source.
Data set [3] concerns the target recombinant Plasmodium vivax SUB1 (PvSUB1), purified and active (Plasmodium vivax) (UniProt E6Y8B9). In words: enzyme inhibition assay (Dabsyl/Edans quenched fluorescent peptide substrate); 13 ng purified PvSUB1 or PfSUB1, 25 uM substrate, 20 mM Tris pH 7.5, 25 mM CaCl2, 37 C; inhibitor at ten concentrations from 1 mM to 2 uM; fluorescence read every 3 min for 90 min; N = 3.

Data set [4] concerns the target recombinant Plasmodium falciparum subtilisin-like serine protease SUB1 (PfSUB1), purified and active (Plasmodium falciparum) (UniProt Q8I0V0). Described as above.
For data set [5], the system named is P. falciparum 3D7 segmented schizonts (egress/invasion). The conditions noted are these: cited from earlier work. On the procedure: A synchronised culture composed of segmented schizontes of P. falciparum (3D7 clone) at 0.5% parasitemia and 1% hematocrit is performed in a 24 wells plate. An aliquot corresponding to 10% of the starting culture (T ) is diluted in a solution at 0.04% of glutaraldehyde in PBS (Dulbecco) and store at 4 C for further flow cytometry analysis.

The test system is the same in data set [6]. In words: Merozoite egress/invasion assay, synchronized schizonts, flow cytometry (YOYO-1). Format: cell-based, Plasmodium falciparum. The conditions noted are these: 10 μM E64, 12 hr, 0.5% segmented schizonts, vs mock control. For orientation: A flow cytometer gives signals particle by particle.
Data set [7] deals with T1, recombinant PfSUB1 (Plasmodium falciparum, UniProt Q8I0V0).
T1 construct: Culture supernatant containing the secreted and active PvSUB1 or PfSUB1 recombinant enzymes was harvested; 6xHis (C); made in house; host or cells: Sf9 insect cells (baculovirus)
The arrangement: method as in 2 sources, ref 22 = [22]; PMID 12764150; doi:10.1074/jbc.M303827200; 22 Jean L Hackett F Martin SR Blackman MJ 2003 Functional characterization of the propeptide of Plasmodium falciparum subtilisin-like protease-1. J Biol Chem 278 28572 9 12764150 10.1074/jbc.M30382720 ||| ref Bouillon et Giganti et al, in preparation. The conditions noted are these: ± 3,4; substrate cleaved between D and N, Dabsyl/Edans; ref Bouillon et Giganti et al, in preparation; read-out: apparent Km of PfSUB1 for its substrate; cited from earlier work.

The next data set deals with P. falciparum. As to conditions: intra-erythrocytic cycle; cited from earlier work.
The subject of the next data set is human epithelial cells. The conditions noted are these: cited from earlier work. The text has this: (§1) In addition to therapies based on small molecules such as chloroquine, artemisinins, quinine and atovaquone, the development of new classes of molecules based on proteins or peptidomimetics [8] is an active field of research. […] Choi et al. have isolated from the ven ...

A further data set has as its system fungi, bacteria. As to conditions: cited from earlier work.
Source text: as §1

Data set [8] addresses T1, recombinant PfSUB1. In words: Enzymatic test: inhibition of recombinant PfSUB1, Dabsyl/Edans peptide substrate. Format: biochemical. The conditions noted are these: translated from the measured PfSUB1 Ki.
For data set [9], the system named is P. falciparum clone 3D7 (asynchronous culture). As to conditions: read-out: EC50 on the asynchronous culture of P. falciparum intra-erythrocytic cycle; ± 6 (SEM); clone 3D7, 0,5% parasitemia, 1% hematocrit, 48 hours contact, 10 μM hypoxanthine, 37 °C. The method, then: Asexual cultures of reference clone 3D7 obtained from MR4 (www.MR4.org) was maintained in continuous cultures following the method of Trager an Jensen, except that the medium was composed of RPMI 1640 medium supplemented with 10% decomplemented human serum (AB+), hypoxanthine 100 [drawing 51] M, gentamycin […]. Parasites were incubated at 37 [drawing 52] C in an atmosphere composed of 5%O [drawing 53] , 5%CO [drawing 54] and 90%N [drawing 55] . […] EC [drawing 57] have been determined following nonlinear regression analysis using HN-NonLin V1.1 software (http://malaria.farch.net).

Data set [10] deals with T2, recombinant Plasmodium vivax SUB1 (PvSUB1) (Plasmodium vivax, UniProt E6Y8B9).
T2 construct: Culture supernatant containing the secreted and active PvSUB1 or PfSUB1 recombinant enzymes was harvested; 6xHis (C); made in house; host or cells: Sf9 insect cells (baculovirus)
The arrangement: method as in Bouillon et Giganti et al, in preparation. The conditions noted are these: ± 1,7; substrate cleaved between the two aspartates, Dabsyl/Edans; ref Bouillon et Giganti et al, in preparation; read-out: apparent Km of PvSUB1 for its substrate; cited from earlier work.

As for “Psalmopeotoxin I (PcFK1), chemically synthesized with an extra serine at the C-term (from UniProt P0C201 52-86) (peptide)”, in data set [1], the inhibition of newly formed trophozoites (merozoite egress/invasion, synchronized P. falciparum culture, 12 hr, flow cytometry) at 200 uM PcFK1, compared to the mock control came out at 56.2%. The EC50 of PcFK1 on the asynchronous culture of P. falciparum intra-erythrocytic cycle (clone 3D7, 48 hours with the drug) in data set [2] was 116 µM. In addition, the figures for the Ki in data set [3] and in data set [4] were 36.3 µM and 29.3 µM, respectively.

On to `CC(C)C[C@H](NC(=O)[C@H]1O[C@@H]1C(=O)O)C(=O)NCCCCN=C(N)N` (relative stereo) [E64, trans-Epoxysuccinyl-L-leucylamido(4-guanidino)butane], for which the “block of egress of P. falciparum merozoites in vitro” value in data set [5] is given as “known to block the egress of P. falciparum merozoites in vitro”. Further, the “inhibition of newly formed trophozoites and equivalent segmented schizont accumulation” value in [6] came to 91.6%.

On to “KLVSADNIDIS [PfSUB1 peptide substrate with fluorophore/quencher Dabsyl/Edans at each edge]”, for which the Km – broadly, the substrate concentration at which the rate is half of its maximum – on recombinant PfSUB1 [7] was 30.2 µM.

In the case of `CC[C@H](C)[C@@H]1NC(=O)CNC(=O)[C@@H](NC(=O)[C@H](C)N)CSSC[C@@H]2NC(=O)[C@@H]3CSSC[C@@H](C(=O)N[C@@H](CC(C)C)C(=O)N[C@H](C(=O)N[C@@H](CCC(N)=O)C(=O)N[C@H](C(=O)N[C@@H](CO)C(=O)O)C(C)C)C(C)C)NC(=O)[C@H](CCCCN)NC(=O)CNC(=O)[C@H](Cc4ccc(O)cc4)NC(=O)[C@H](CCCNC(=N)N)NC(=O)[C@H](CSSC[C@H](NC(=O)[C@H](CC(N)=O)NC(=O)[C@H](CC(=O)O)NC(=O)[C@H](Cc4c[nH]cn4)NC(=O)[C@H](CC(C)C)NC1=O)C(=O)N[C@@H](C(C)C)C(=O)N[C@@H](Cc1ccc(O)cc1)C(=O)N[C@@H](C(C)C)C(=O)N1CCC[C@H]1C(=O)N[C@@H](C)C(=O)N[C@@H](CCC(N)=O)C(=O)N[C@@H](CC(N)=O)C(=O)N1CCC[C@H]1C(=O)N3)NC(=O)[C@H](CCC(N)=O)NC(=O)[C@H](CC(C)C)NC(=O)CNC(=O)[C@H](CCCNC(=N)N)NC2=O` [PcFK1], the “IC50, growth of P. falciparum” value in the data set on P. falciparum is recorded as “low micromolar range”. Further, the “effect on growth or viability of human epithelial cells” value in the data set with human epithelial cells is “nor do they affect the growth or viability of human epithelial cells”. In addition, in the data set with fungi, bacteria, the “antifungal or antibacterial activity” value is listed as “no antifungal or antibacterial activity”. In addition, the “free energy of binding translated from Ki value” on recombinant PfSUB1 [8] was -6.37 kcal/mol. For the same molecule, the EC50 (usually the concentration that produces a half-maximal response) in [9] came out at 116 µM.

On to “KLVGADDVSLA [PvSUB1 peptide substrate with fluorophore/quencher Dabsyl/Edans at each edge]”, for which the Km in [10] was 19.7 µM.
